Experimental data published in ChEMBL document CHEMBL1152077, “Novel, water-soluble phosphate derivatives of 2-ethoxy carbonylpaclitaxel as potential prodrugs of paclitaxel: Synthesis and antitumor evaluation” (1995).

Assays:
Assay type in all cases: functional
[1] = test system: Mus musculus; experiment: Tested in vivo antitumor activity at a dose of subcutaneous 33 mg/kg/injection in Madison 109 murine lung carcinoma (M109)
[2] = test system: Mus musculus; experiment: Tested in vivo antitumor activity at a dose of subcutaneous 48 mg/kg/injection relative to paclitaxel in Madison 109 murine lung carcinoma (M109)
[3] = test system: Mus musculus; experiment: Tested in vivo antitumor activity at a dose of subcutaneous 18 mg/kg/injection relative to paclitaxel in Madison 109 murine lung carcinoma (M109)
[4] = test system: Mus musculus; experiment: Tested in vivo antitumor activity at a dose of subcutaneous 40 mg/kg/injection in Madison 109 murine lung carcinoma (M109)
[5] = test system: Mus musculus; experiment: Tested in vivo antitumor activity at a dose of subcutaneous 24 mg/kg/injection relative to paclitaxel in Madison 109 murine lung carcinoma (M109)

Question: With `CCOC(=O)O[C@@H](C(=O)O[C@H]1C[C@@]2(O)[C@@H](OC(=O)c3ccccc3)[C@@H]3[C@]4(OC(C)=O)CO[C@@H]4C[C@H](OC(=O)Cc4ccccc4OP(=O)([O-])O)[C@@]3(C)C(=O)[C@H](OC(C)=O)C(=C1C)C2(C)C)[C@@H](NC(=O)c1ccccc1)c1ccccc1.[Na+]` as the compound, how does the T-C [1] read?
Answer: 1.5 days (optimal dose)-1

Question: What about the T-C [2] of the same compound?
Answer: 15.8 days (optimal dose)-1

Question: Which T-C [3] does the source give for `CCOC(=O)O[C@@H](C(=O)O[C@H]1C[C@@]2(O)[C@@H](OC(=O)c3ccccc3)[C@@H]3[C@]4(OC(C)=O)CO[C@@H]4C[C@H](OC(=O)CC(C)(C)c4c(C)cc(C)cc4OP(=O)([O-])O)[C@@]3(C)C(=O)[C@H](OC(C)=O)C(=C1C)C2(C)C)[C@@H](NC(=O)c1ccccc1)c1ccccc1.[Na+]` here?
Answer: 12.3 days (optimal dose)-1

Question: What about the T-C [4] of the same compound?
Answer: 18 days (optimal dose)-1

Question: Which T-C [5] does the source give for `CCOC(=O)O[C@@H](C(=O)O[C@H]1C[C@@]2(O)[C@@H](OC(=O)c3ccccc3)[C@@H]3[C@]4(OC(C)=O)CO[C@@H]4C[C@H](OC(=O)c4ccccc4COP(=O)([O-])O)[C@@]3(C)C(=O)[C@H](OC(C)=O)C(=C1C)C2(C)C)[C@@H](NC(=O)c1ccccc1)c1ccccc1.[K+]` here?
Answer: 10.8 days (optimal dose)-1

Question: What about the T-C [4] of the same compound?
Answer: 17 days (optimal dose)-1
